Assay results as given in patent US7396672B2, “Method for the production of dinoflagellate cultures” (priority 2003, dated 2008).

Legend:
Type in all cases: cell-based
[1] = system: Rhodomonas salina (CCMP1319); test: cell proliferation assay, monoculture of phytoplankton; conditions: 8 days
Experimental: (§1) The effects of mimosine at low mM concentrations on pure cultures of four different groups of phytoplankton were tested. The phytoplankton tested were the Cryptophyceae Rhodomonas salina (CCMP1319), the Prymnesiophyceae Isochrysis galbana (CCMP1323), the Bacillariophyceae Cylindricus fusiformis (PCC100) and the dinoflagellate Heterocapsa triquetra (CCMP449). Cultures of phytoplankters were obtained from Bigelow Laboratory for Ocean Sciences (CCMP) or the Plymouth Culture Collection (PCC). The cultures were maintained in f/2 medium at 18° C., under photon flux of […] from fluorescent tubes (Phillips daylight) under a 14:10 hours light/dark cycle. For cell proliferation assays, exponentially growing cells were diluted ten times with fresh medium before the addition of mimosine to give cultures having a final mimosine concentration of 0.01, 0.1 and 1 mM. All chemicals were from Sigma Corporation unless otherwise stated. All growth studies were performed in triplicate. Cell counting was performed by Coulter counter and all samples were counted at least three times.

[2] = system: Isochrysis galbana (CCMP1323); test: as above; conditions: 8 days
Experimental: as §1

[3] = system: Cylindricus fusiformis (PCC100); test: as above; conditions: 8 days
Experimental: as §1

[4] = system: Heterocapsa triquetra (CCMP449); test: as above; conditions: 1 mM mimosine
Experimental: as §1

dinoflagellates = test: mixed phytoplankton in natural seawater samples; conditions: 2 mM mimosine
Experimental: (§2) Whether mimosine can confer an advantage in the phytoplankton community by adding mimosine directly to natural seawater samples was therefore tested. Natural seawater samples were collected from Port Shelter (eastern Hong Kong) and filtered through a 100 μm mesh to remove all zooplankton immediately before use. Mimosine was then added at 2 mM and samples were taken for estimation of the percentage of dinoflagellates and diatoms. The samples were then incubated under the same conditions as in Example 1. Within 6 days, dinoflagellates became the dominant group. The dinoflagellate population increased from 30% to 60% of the total population (FIG. 2). The diatoms, which were the dominant group in the control, decreased to 10% of the total population in 6 days (at the time of measurement) upon treatment with mimosine.

diatoms = test: mixed phytoplankton in natural seawater samples; conditions: 2 mM mimosine, 6 days, diatoms dominant group in the control
Experimental: as §2

[5] = 0.01 and 0.1 mM mimosine, f/2 medium

NC(Cn1ccc(=O)c(O)c1)C(=O)O (stereo not drawn) [mimosine, α-amino-3-hydroxy-4-oxo-1-pyridine propanoic acid]
mean cell numbers significantly lower than those in the controls ([1]; 1 mM mimosine): 75%
cell number compared to control treatment [1, 5]: slightly lower numbers of cells, though not significantly so
cell number increase ([2]; 1 mM mimosine): no cell number increase
cell number compared to control treatment [2, 5]: slightly lower numbers of cells, though not significantly so
mean cell numbers significantly lower than those in the controls ([3]; 1 mM mimosine): 25%
cell number compared to control treatment [3, 5]: slightly lower numbers of cells, though not significantly so
cell number compared to control treatment [4]: increased the cell number significantly
time until dinoflagellates became the dominant group (dinoflagellates; natural seawater): ≤ 6 days
dinoflagellate population as percentage of the total population (dinoflagellates; natural seawater (Port Shelter), 6 days, increased from 30%): 60%
diatoms as percentage of the total population (diatoms): 10%
